Test results published in patent US7276519B2, “Thieno[3,2-b]pyridine-6-carbonitriles and thieno[2,3-b]pyridine-5-carbonitriles as protein kinase inhibitors” (Wyeth, priority 2002, dated 2007).
pIC50: −log10 of the molar value. Read-outs that look alike come from different tables or passages of the source.

How the values were obtained:
[1] = tested on: Rat2 fibroblasts stably transformed with v-Src/Hu c-Src fusion gene; experiment: Anchorage independent Src-transformed fibroblast proliferation assay; type: cell-based, rat; conditions: for pIC50: read-out: Src cells IC50; for inhibition at 100 µM / inhibition at 10 µM: Rat2, Table 1; for inhibition at 100 µM: read-out: Src cells % inh at 100 μM; for inhibition at 10 µM: read-out: Src cells % inh at 10 μM
Procedure: Anchorage Independent Src-Transformed Fibroblast Proliferation Assay Rat2 fibroblasts stably transformed with a plasmid containing a CMV promotor controlled v-Src/Hu c-Src fusion gene in which the catalytic domain of human c-Src was inserted in place of the v-Src catalytic domain in the v-Src gene are used for the measurement of src dependent suspension growth. […] Multiple entries for a given compound indicate that it was tested multiple times.

[2] = Rattus norvegicus, Rat2, 120 h, Table 1, suspension growth, MTS readout Day 5
[3] = Table 1, suspension growth, MTS readout Day 5

SMILES	melting point	pIC50 [1, 2]	also measured
COc1cc(Nc2c(C#N)cnc3cc(I)sc23)c(Cl)cc1Cl [Example 4, 7-[(2,4-Dichloro-5-methoxyphenyl)amino]-2-iodothieno[3,2-b]pyridine-6-carbonitrile]	233 to 234 °C	5.51	
COc1cc(Nc2c(C#N)cnc3cc(-c4ccc(CN5CCCCC5)cc4)sc23)c(Cl)cc1Cl [Example 18, 7-[(2,4-Dichloro-5-methoxyphenyl)amino]-2-[4-(piperidin-1-ylmethyl)phenyl]thieno[3,2-b]pyridine-6-carbonitrile]	218 to 220 °C	6.00	
Cn1ccnc1Sc1ccc(Nc2c(C#N)cnc3sccc23)cc1Cl [Example 6, 4-[(3-Chloro-4-[(1-methyl-1H-imidazol-2-yl)thio]phenyl)amino]thieno[2,3-b]pyridine-5-carbonitrile]	> 240 °C		inhibition at 100 µM ([1]; Rattus norvegicus, at 100 μM): 3%
COc1cc(Nc2c(C#N)cnc3cc(-c4csc(C5OCCO5)c4)sc23)c(Cl)cc1Cl [Example 36, 7-[(2,4-Dichloro-5-methoxyphenyl)amino]-2-[5-(1,3-dioxolan-2-yl)thien-3-yl]thieno[3,2-b]pyridine-6-carbonitrile]	219 to 221 °C	5.80	
COc1cc(Nc2c(C#N)cnc3cc(C#C[Si](C)(C)C)sc23)c(Cl)cc1Cl [Example 32, 7-[(2,4-Dichloro-5-methoxyphenyl)amino]-2-[(trimethylsilyl)ethynyl]thieno[3,2-b]pyridine-6-carbonitrile]	169 to 171 °C		IC50 ([1]; Rattus norvegicus, Rat2, 120 h, read-out: Src cells IC50 μM, Table 1, suspension growth, MTS readout Day 5): 1.5 µM
COc1cc(Nc2c(C#N)cnc3sc(I)cc23)c(Cl)cc1Cl [Example 7, 4-[(2,4-Dichloro-5-methoxyphenyl)amino]-2-iodothieno[2,3-b]pyridine-5-carbonitrile]	231 to 233 °C		inhibition at 10 µM ([1]; Rattus norvegicus): 31%
COc1cc(Nc2c(C#N)cnc3cc(-c4ccc(CN5CCC(O)CC5)cc4)sc23)c(Cl)cc1Cl [Example 40, 7-[(2,4-Dichloro-5-methoxyphenyl)amino]-2-{4-[(4-hydroxypiperidin-1-yl)methyl]phenyl}thieno[3,2-b]pyridine-6-carbonitrile]	149 to 150 °C	6.15	pIC50 [1, 3]: 6.37
COc1cc(Nc2c(C#N)cnc3cc(C#Cc4ccccn4)sc23)c(Cl)cc1Cl [Example 22, 7-[(2,4-Dichloro-5-methoxyphenyl)amino]-2-(pyridin-2-ylethynyl)thieno[3,2-b]pyridine-6-carbonitrile]	237 to 239 °C	6.00	
COc1cc(Nc2c(C#N)cnc3sc(-c4ccc(C=O)cc4)cc23)c(Cl)cc1Cl [Example 27, 4-[(2,4-Dichloro-5-methoxyphenyl)amino]-2-(4-formylphenyl)thieno[2,3-b]pyridine-5-carbonitrile]	> 240 °C		inhibition at 100 µM ([1]; Rattus norvegicus, at 100 μM): 19%; Src cells % inh at 100 μM ([1]; Table 1, at 100 μM): 28%
N#Cc1cnc2ccsc2c1NCc1ccc(Cl)cc1Cl [Example 13, 7-[(2,4-Dichlorobenzyl)amino]thieno[3,2-b]pyridine-6-carbonitrile]	215 to 216 °C		inhibition at 10 µM ([1]; Rattus norvegicus): 34%
COc1cc(Nc2c(C#N)cnc3cc(-c4cccc(CN5CCOCC5)c4)sc23)c(Cl)cc1Cl [Example 26, 7-[(2,4-Dichloro-5-methoxyphenyl)amino]-2-[3-(morpholin-4-ylmethyl)phenyl]thieno[3,2-b]pyridine-6-carbonitrile]	205 to 207 °C	6.00	
N#Cc1cnc2ccsc2c1Oc1ccc(Cl)cc1Cl [Example 11, 7-[(2,4-Dichlorophenoxy)]thieno[3,2-b]pyridine-6-carbonitrile]	158 to 160 °C	4.64	
C#Cc1cc2ncc(C#N)c(Nc3cc(OC)c(Cl)cc3Cl)c2s1 [Example 33, 7-[(2,4-Dichloro-5-methoxyphenyl)amino]-2-ethynylthieno[3,2-b]pyridine-6-carbonitrile]	198 to 200 °C	6.06	
COc1cc(Nc2c(C#N)cnc3cc(-c4ccc(C(=O)O)cc4)sc23)c(Cl)cc1Cl [Example 19, 4-{6-Cyano-7-[(2,4-dichloro-5-methoxyphenyl)amino]thieno[3,2-b]pyridine-2-yl]benzoic acid]	> 300 °C	< 5.00	
N#Cc1cnc2ccsc2c1Sc1ccc(Cl)cc1Cl [Example 12, 7-[(2,4-Dichlorophenyl)thio]thieno[3,2-b]pyridine-6-carbonitrile]	126 to 128 °C		inhibition at 10 µM ([1]; Rattus norvegicus): 23%
N#Cc1cnc2ccsc2c1Nc1ccc(Cl)cc1Cl [Example 10, 7-[(2,4-Dichlorophenyl)amino]thieno[3,2-b]pyridine-6-carbonitrile]	198 to 200 °C	4.41	

More lines, main results first:

melting point	SMILES	pIC50 [1, 2]	also measured
254 to 256 °C	N#Cc1cnc2cc(-c3ccc(CN4CCOCC4)cc3)sc2c1Nc1ccc(Oc2ccccc2)cc1 [Example 45, 2-[4-(Morpholin-4-ylmethyl)phenyl]-7-[(4-phenoxyphenyl)amino]thieno[3,2-b]pyridine-6-carbonitrile]		inhibition at 100 µM ([1]; Rattus norvegicus, at 100 μM): 2%
268 to 270 °C	COc1cc(Nc2c(C#N)cnc3cc(-c4ccc(C=O)cc4)sc23)cc(OC)c1OC [Example 55, 2-(4-Formylphenyl)-7-[(3,4,5-trimethoxyphenyl)amino]thieno[3,2-b]pyridine-6-carbonitrile]		inhibition at 100 µM ([1]; Rattus norvegicus, at 100 μM): 97%
240 to 241 °C	N#Cc1cnc2cc(/C=C/c3ccncc3)sc2c1Nc1ccc(Oc2ccccc2)cc1 [Example 49, 7-[(4-Phenoxyphenyl)amino]-2-[(E)-2-pyridin-4-ylethenyl]thieno[3,2-b]pyridine-6-carbonitrile]		inhibition at 100 µM ([1]; Rattus norvegicus, at 100 μM): 14%
105 to 107 °C	COc1cc(Nc2c(C#N)cnc3cc(-c4ccc(CN5CCN(Cc6ccccn6)CC5)cc4)sc23)c(Cl)cc1Cl [Example 124, 7-[(2,4-dichloro-5-methoxyphenyl)amino]-2-(4-{[4-(pyridin-2-ylmethyl)piperazin-1-yl]methyl}phenyl)thieno[3,2-b]pyridine-6-carbonitrile]		IC50 ([1]; Rattus norvegicus, Rat2, Table 3, read-out: Src Cells IC50 μM or % inhib at 10 μM (IC50 values)): 0.914 µM; IC50 ([1]; Table 3, read-out: Src Cells IC50 μM or % inhib at 10 μM (IC50 values)): 0.576 µM
225 to 227 °C	COc1cc(Nc2c(C#N)cnc3cc(-c4cnc(C=O)n4C)sc23)c(Cl)cc1Cl [Example 54, 7-[(2,4-Dichloro-5-methoxyphenyl)amino]-2-(2-formyl-1-methyl-1H-imidazol-5-yl)thieno[3,2-b]pyridine-6-carbonitrile]	5.82	pIC50 [1, 3]: 6.00
260 to 262 °C	N#Cc1cnc2cc(I)sc2c1Nc1ccc(Oc2ccccc2)cc1 [Example 42, 2-Iodo-7-[(4-phenoxyphenyl)amino]thieno[3,2-b]pyridine-6-carbonitrile]		inhibition at 100 µM ([1]; Rattus norvegicus, at 100 μM): 5%
224 °C (dec.)	COc1cc(Nc2c(C#N)cnc3cc(/C=C/C(=O)OC(C)(C)C)sc23)c(Cl)cc1Cl [Example 50, tert-Butyl (2E)-3-{6-cyano-7-[(2,4-dichloro-5-methoxyphenyl)amino]thieno[3,2-b]pyridin-2-yl}prop-2-enoate]	5.13	
248 to 250 °C	N#Cc1cnc2cc(Br)sc2c1Nc1ccc(Oc2ccccc2)cc1 [Example 48, 2-Bromo-7-[(4-phenoxyphenyl)amino]thieno[3,2-b]pyridine-6-carbonitrile]		inhibition at 100 µM ([1]; Rattus norvegicus, at 100 μM): 30%
